Read-outs that look alike come from different tables or passages of the source. Starred links: 1 amine or outer side, 2 acyl side, 3 side chain; linkers in the order of their positions; H or OH if unused. Non-standard residues stand in square brackets, D forms with d. Residues, ends and D or L forms follow the SMILES beside them. No end group written: not given here. *: point of attachment. dBip = N[C@H](Cc1ccc(-c2ccccc2)cc1)C(=O)O; Oic = O=C(O)[C@@H]1C[C@@H]2CCCC[C@@H]2N1; Phe(4-Cl) = N[C@@H](Cc1ccc(Cl)cc1)C(=O)O; Phe(4-I) = N[C@@H](Cc1ccc(I)cc1)C(=O)O; γGlu = O=C(O)[C@H](CCC(=O)[*:2])N[*:1]; NMeR = CN[C@@H](CCCNC(=N)N)C(=O)O; Tridecanoyl = CCCCCCCCCCCCC(=O)*; hArg = N=C(N)NCCCC[C@H](N)C(=O)O; Cha = N[C@@H](CC1CCCCC1)C(=O)O; NMeL = CN[C@@H](CC(C)C)C(=O)O; αMeL = CC(C)C[C@](C)(N)C(=O)O; β3hV = CC(C)[C@H](N)CC(=O)O; Nle = CCCC[C@H](N)C(=O)O; Orn = NCCC[C@H](N)C(=O)O; AEEA = NCCOCCOCC(=O)O; Aib = CC(C)(N)C(=O)O; βAla = NCCC(=O)O

Usually share remaining stands for what is left of the initial amount, in per cent. A low value points to a greater loss. For orientation: EC50 means the concentration giving half of the maximal effect.

Series [1] is described as follows: In vitro stability in rat liver homogenate. Type of series: in vitro ADME. Conditions: tissue homogenate; for Stability at 4 hours (% Remaining) Liver: 5 μM. A digest of the protocol: (§1)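 Peptide remaining was followed by high-resolution LC-MS of methanol-quenched, centrifuged samples with internal standard. Incubations were at 37° C. over 4 hr, peptides at 5 μM final in rat plasma or in rat liver or kidney homogenate.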

The nature of series [2]: In vitro stability in rat plasma. It is filed as in vitro ADME. The conditions noted are these: for Stability at 4 hours (% Remaining) Plasma: 5 μM. A digest of the protocol:
as §1

Series [3] in a line: In vitro stability in rat kidney homogenate. Type of series: in vitro ADME. Conditions: rat, tissue homogenate; for Stability at 4 hours (% Remaining) Kidney: 5 μM. Here is the method: Apelin peptides were spiked into rat plasma, liver homogenate, and kidney homogenate, which were obtained from commercial sources, to a final concentration of 5 μM. The samples were then incubated at 37° C. over a period of 4 hr. […] In a typical experiment, an aliquot of 100 μL of sample was taken from the incubation vial, followed by addition of 300 μL of MeOH containing internal standard. The quenched sample was centrifuged at 5500 g for 15 min after 15 min vortex in room temperature. The supernatant was then analyzed by high resolution LC-MS. […] In vitro plasma, […], and kidney stability results are shown below in Table 14.

Series [4] deals with T1, rat APJ receptor (Rattus norvegicus, UniProt Q9JHG3).
T1 construct: expressed in transfected cells
T1 sequence (Q9JHG3 1-377): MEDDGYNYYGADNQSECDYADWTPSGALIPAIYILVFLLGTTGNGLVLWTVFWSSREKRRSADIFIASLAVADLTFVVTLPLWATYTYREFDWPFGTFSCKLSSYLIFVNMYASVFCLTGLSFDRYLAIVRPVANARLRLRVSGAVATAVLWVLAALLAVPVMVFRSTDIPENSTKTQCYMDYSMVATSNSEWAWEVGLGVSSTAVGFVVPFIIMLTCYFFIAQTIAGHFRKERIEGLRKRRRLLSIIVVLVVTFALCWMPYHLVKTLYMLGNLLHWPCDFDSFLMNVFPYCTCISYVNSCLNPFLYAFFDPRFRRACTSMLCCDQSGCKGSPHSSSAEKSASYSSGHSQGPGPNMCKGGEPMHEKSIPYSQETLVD
The series is described as follows: [35S] GTPγS assay, rat APJ receptor. Type of series: biochemical. Here is the method: The membranes were incubated with modified peptides in the assay buffer. […] Bound [^35S] GTPγS was separated from free radiolabel by filtration. The filter bound radioactivity was determined by liquid scintillation counting.
Background: Binding of GTPγS marks nucleotide exchange on a G protein.

The mark [5] stands for this setting: Table 16, read-out: EC50 Rat APJ Receptor.

With “110 (QRPRLSHKGPMPF; source: /note="N-term MerPr(10KmPEGacetamide)") [compound 110]”, in series [1], the “Stability at 4 hours (% Remaining) Liver” value is on record as 61 % Remaining. Also, the “Stability at 4 hours (% Remaining) Plasma” value in series [2] is 36 % Remaining. Besides, in series [3], the “Stability at 4 hours (% Remaining) Kidney” value turned out to be 27 % Remaining.

With “120 (QRP[NMeR][Cha]SHKG[Oic][Nle][Aib][Phe(4-Cl)]; not fully specified (N-terminus); ends and bridges not checked; also: 10K mPEG acetamide on N-terminal MerPr) [compound 120]”, the “Stability at 4 hours (% Remaining) Liver” value in series [1] was 61 % Remaining. Also, in series [2], the “Stability at 4 hours (% Remaining) Plasma” value is 68 % Remaining. For the same compound, in series [3], the “Stability at 4 hours (% Remaining) Kidney” value is given as under 1.0 % Remaining.

Turning to `CCCC[C@H](NC(=O)[C@@H]1CCCN1C(=O)CNC(=O)[C@H](CCCCN)NC(=O)[C@H](Cc1c[nH]cn1)NC(=O)[C@H](CO)NC(=O)[C@](C)(CC(C)C)NC(=O)[C@H](CCCCNC(=N)N)NC(=O)[C@]1(C)CCCN1C(=O)[C@H](CCCNC(=N)N)NC(=O)[C@H](CCC(N)=O)NC(C)=O)C(=O)N1CCC[C@H]1C(=O)N[C@@H](Cc1ccc(Cl)cc1)C(=O)O` [compound 69], the fraction remaining at 4 h, 5 μM in series [2] and in series [3] was under 1% throughout.

On to `CCCC[C@H](NC(=O)[C@@H]1CCCN1C(=O)CNC(=O)[C@H](CCCCN)NC(=O)[C@H](Cc1c[nH]cn1)NC(=O)[C@H](CO)NC(=O)[C@](C)(CC(C)C)NC(=O)[C@H](CCCNC(=N)N)N(C)C(=O)[C@@H]1CCCN1C(=O)[C@H](CCCCNC(=N)N)NC(=O)[C@H](CCC(N)=O)NC(C)=O)C(=O)N1CCC[C@H]1C(=O)N[C@@H](Cc1ccc(Cl)cc1)C(=O)O` [compound 71], for which the amount remaining at 4 h, 5 μM stood at 35.5% in series [1], 0% in series [2] and 0.1% in series [3].

On to `CCCCCCCCCCCCC(=O)N[C@@H](CCC(=O)NCCOCCOCC(=O)NCCOCCOCC(=O)N[C@@H](CCCN)C(=O)N[C@@H](Cc1ccccc1)C(=O)N[C@@H](CCCCNC(=N)N)C(=O)N[C@@H](CCCCNC(=N)N)C(=O)N[C@H](CC(=O)N[C@@H](CCCCNC(=N)N)C(=O)N1CCC[C@H]1C(=O)N[C@@H](CCCCNC(=N)N)C(=O)N[C@@H](CC1CCCCC1)C(=O)N[C@@H](CO)C(=O)N[C@@H](Cc1c[nH]cn1)C(=O)N[C@@H](CCCCN)C(=O)NCC(=O)N1[C@H](C(=O)N[C@@H](CCCC)C(=O)N2CCC[C@H]2C(=O)N[C@@H](Cc2ccc(Cl)cc2)C(=O)O)C[C@@H]2CCCC[C@@H]21)C(C)C)C(=O)O` [compound 307] ({Tridecanoyl-γGlu-AEEA-AEEA}-[Orn]F[hArg][hArg][β3hV][hArg]P[hArg][Cha]SHKG[Oic][Nle]P[Phe(4-Cl)]-OH), for which the share remaining at 4 h, 5 μM in series [1] is 66.8%; in series [2], over 90%; in series [3] it was 13.8%.

`CCCCCCCCCCCCC(=O)N[C@@H](CCC(=O)NCCOCCOCC(=O)NCCOCCOCC(=O)N[C@@H](CCCCNC(=N)N)C(=O)N[C@H](CCCNC(=N)N)C(=O)N[C@@H](CCC(N)=O)C(=O)N[C@@H](CCCC)C(=O)N1CCC[C@H]1C(=O)N[C@H](CCCNC(=N)N)C(=O)N(C)[C@@H](CC(C)C)C(=O)N[C@@H](CO)C(=O)N[C@@H](C)C(=O)N[C@@H](CCCCN)C(=O)NCC(=O)N1[C@H](C(=O)N[C@@H](Cc2ccc(I)cc2)C(=O)N2CCC[C@H]2C(=O)N[C@H](Cc2ccc(-c3ccccc3)cc2)C(=O)O)C[C@@H]2CCCC[C@@H]21)C(=O)O` [compound 328] ({Tridecanoyl-γGlu-AEEA-AEEA}-[hArg][dR]Q[Nle]P[dR][NMeL]SAKG[Oic][Phe(4-I)]P[dBip]-OH): the results for the amount remaining at 4 h, 5 μM in series [1], in series [2] and in series [3] were 0%, 76% and 55%, respectively.

As for `CCCCCCCCCCCCC(=O)N[C@@H](CCC(=O)NCCOCCOCC(=O)NCCOCCOCC(=O)N[C@@H](CCC(N)=O)C(=O)N[C@@H](CCCNC(=N)N)C(=O)N1CCC[C@H]1C(=O)N(C)[C@@H](CCCNC(=N)N)C(=O)N[C@@H](CC(C)C)C(=O)N[C@@H](CO)C(=O)N[C@@H](Cc1c[nH]cn1)C(=O)N[C@@H](CCCCN)C(=O)NCC(=O)N1[C@H](C(=O)N[C@@H](CCCC)C(=O)N2CCC[C@H]2C(=O)N[C@@H](Cc2ccc(Cl)cc2)C(=O)O)C[C@@H]2CCCC[C@@H]21)C(=O)O` [compound 352] ({Tridecanoyl-γGlu-AEEA-AEEA}-QRP[NMeR]LSHKG[Oic][Nle]P[Phe(4-Cl)]-OH), the share remaining at 4 h, 5 μM in series [1] was 0%; in series [2], 88%. Further, the EC50 in series [4] (setting [5]) was found to be 0.23 nM.

For the compound `CCCCCCCCCCCCC(=O)N[C@@H](CCC(=O)NCCOCCOCC(=O)NCCOCCOCC(=O)N[C@H](CCC(N)=O)C(=O)N[C@@H](CCCCNC(=N)N)C(=O)N1CCC[C@H]1C(=O)N[C@H](CCCNC(=N)N)C(=O)N[C@@H](CC1CCCCC1)C(=O)N[C@@H](CO)C(=O)N[C@@H](Cc1ccc(O)cc1)C(=O)N[C@@H](CCCCN)C(=O)NCC(=O)N1[C@H](C(=O)N[C@@H](CCCC)C(=O)N2CCC[C@H]2C(=O)N[C@@H](Cc2ccc(Cl)cc2)C(=O)O)C[C@@H]2CCCC[C@@H]21)C(=O)O` [compound 373] ({Tridecanoyl-γGlu-AEEA-AEEA}-[dQ][hArg]P[dR][Cha]SYKG[Oic][Nle]P[Phe(4-Cl)]-OH), the amount remaining at 4 h, 5 μM in series [3] was 64%.

For the compound `CCCCCCCCCCCCC(=O)N[C@@H](CCC(=O)NCCOCCOCC(=O)NCCOCCOCC(=O)N[C@@H](CCC(N)=O)C(=O)N[C@@H](CCCNC(=N)N)C(=O)N(C)[C@@H](CCCNC(=N)N)C(=O)N[C@@](C)(CC(C)C)C(=O)N[C@@H](CO)C(=O)N[C@@H](Cc1c[nH]cn1)C(=O)N[C@@H](CCCCN)C(=O)NCC(=O)N1[C@H](C(=O)N[C@@H](CCCC)C(=O)N2CCC[C@H]2C(=O)N[C@@H](Cc2ccc(Cl)cc2)C(=O)O)C[C@@H]2CCCC[C@@H]21)C(=O)O` [compound 396] ({Tridecanoyl-γGlu-AEEA-AEEA}-QR[NMeR][αMeL]SHKG[Oic][Nle]P[Phe(4-Cl)]-OH), the fraction remaining at 4 h, 5 μM is under 1% in series [1] and over 90% in series [2]. Further, the EC50 in series [4] (setting [5]) came to 1.14 nM.

As for `CCCCCCCCCCCCC(=O)N[C@@H](CCC(=O)NCCOCCOCC(=O)NCCOCCOCC(=O)N[C@@H](CCC(N)=O)C(=O)N[C@@H](CCCNC(=N)N)C(=O)N1CCC[C@H]1C(=O)N(C)[C@@H](CCCNC(=N)N)C(=O)N[C@@H](CC(C)C)C(=O)N[C@@H](CO)C(=O)N[C@@H](Cc1c[nH]cn1)C(=O)NCCC(=O)NCC(=O)N1CCC[C@H]1C(=O)N[C@@H](CCCC)C(=O)N1CCC[C@H]1C(=O)N[C@@H](Cc1ccc(Cl)cc1)C(=O)O)C(=O)O` [compound 424] ({Tridecanoyl-γGlu-AEEA-AEEA}-QRP[NMeR]LSH[βAla]GP[Nle]P[Phe(4-Cl)]-OH), the amount remaining at 4 h, 5 μM was under 1% in series [1] and 2% in series [2]. In series [4] (setting [5]), the EC50 stood at 17.2 nM.

For `CCCCCC(=O)N[C@@H](CCC(=O)NCCOCCOCC(=O)NCCOCCOCC(=O)N[C@@H](CCC(N)=O)C(=O)N(C)[C@@H](CCCCNC(=N)N)C(=O)N1CCC[C@H]1C(=O)N(C)[C@@H](CCCNC(=N)N)C(=O)N[C@@](C)(CC(C)C)C(=O)N[C@@H](CO)C(=O)N[C@@H](Cc1c[nH]cn1)C(=O)N[C@@H](CCCCN)C(=O)NCC(=O)N1CCC[C@H]1C(=O)N[C@@H](CCCC)C(=O)N1CCC[C@H]1C(=O)N[C@@H](Cc1ccc(Cl)cc1)C(=O)O)C(=O)O` [compound 561], the amount remaining at 4 h, 5 μM in series [1] and in series [2] was under 1% throughout. For the same compound, the half-maximal effective concentration (EC50) in series [4] (rat APJ receptor, read-out: EC50 Rat APJ Receptor) turned out to be 5.94 nM.

The values above are taken from patent US11807693B2 (priority 2014, dated 2023).
